The source of these data is ChEMBL document CHEMBL6096664, “Discovery of novel KSP-targeting PROTACs with potent antitumor effects in vitro and in vivo” (Eur J Med Chem, 2025).

The structures appear in SMILES notation.

The subject of test [1] is HCT-116. The test is described as follows: Induction of cell cycle arrest in human HCT-116 cells assessed as accumulation of cells at G1 phase at 10 nM incubated for 24 hrs by RNase A/propidium iodide staining based flow cytometric analysis (reference value: 93.11 %). In kind it is functional. Background: In flow cytometry, cells or beads pass a laser one at a time.
The target of test [2] is Protein cereblon/Kinesin-like protein KIF11 (Homo sapiens, UniProt P52732+Q96SW2). The test is described as follows: PROTAC activity at CRBN/KSP in human HCT-116 cells assessed as induction of KSP degradation at 500 nM incubated for 48 hrs by Western blot analysis relative to control. In kind it is cell-based. (A western blot detects proteins with antibodies after separation by electrophoresis.)
Protein cereblon/Kinesin-like protein KIF11, sequence (Q96SW2 whole entry, looked up, one chain of several): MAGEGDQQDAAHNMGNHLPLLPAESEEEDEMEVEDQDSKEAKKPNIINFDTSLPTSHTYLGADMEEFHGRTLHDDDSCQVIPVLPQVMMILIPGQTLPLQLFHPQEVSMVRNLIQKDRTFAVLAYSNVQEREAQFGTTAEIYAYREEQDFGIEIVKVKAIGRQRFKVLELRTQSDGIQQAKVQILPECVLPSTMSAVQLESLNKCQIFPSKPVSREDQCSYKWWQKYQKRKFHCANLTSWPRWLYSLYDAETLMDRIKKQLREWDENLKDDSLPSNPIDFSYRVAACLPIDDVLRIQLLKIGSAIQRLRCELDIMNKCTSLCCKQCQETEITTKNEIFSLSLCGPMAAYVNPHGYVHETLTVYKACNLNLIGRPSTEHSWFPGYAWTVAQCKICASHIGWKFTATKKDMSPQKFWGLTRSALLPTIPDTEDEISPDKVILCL

Test [3] relates to HCT-116. The test is described as follows: Induction of apoptosis in human HCT-116 cells assessed as early apoptotic cells at 100 nM incubated for 48 hrs by Annexin V-FITC/PI staining based flow cytometry analysis (reference value: 3.02 %). In kind it is functional.
For test [4], the system named is MCF7. The test is described as follows: Antiproliferative activity against human MCF7 cells assessed as inhibition of cell proliferation measured after 72 hrs by CCK8 assay. In kind it is functional, cell-based. Particulars: MCF7, 72 h. In general terms: Tetrazolium dyes change colour on reduction, which living cells bring about.
In test [5] the test system is HCT-116. The test is described as follows: Induction of cell cycle arrest in human HCT-116 cells assessed as accumulation of cells at S phase at 10 nM incubated for 24 hrs by RNase A/propidium iodide staining based flow cytometric analysis (reference value: 2.84 %). In kind it is functional.
For test [6], the system named is HCT-116. The test is described as follows: Induction of apoptosis in human HCT-116 cells assessed as necrotic cells at 100 nM incubated for 48 hrs by Annexin V-FITC/PI staining based flow cytometry analysis (reference value: 1.31 %). In kind it is functional.
In test [7] the test system is HCT-116. The test is described as follows: Antiproliferative activity against human HCT-116 cells assessed as inhibition of cell proliferation measured after 72 hrs by CCK8 assay. In kind it is functional, cell-based. Particulars: HCT-116, 72 h.
In test [8] the test system is HCT-116. The test is described as follows: Induction of apoptosis in human HCT-116 cells assessed as late apoptotic cells at 100 nM incubated for 48 hrs by Annexin V-FITC/PI staining based flow cytometry analysis (reference value: 1.36 %). In kind it is functional.
In test [9] the test system is MDA-MB-231. The test is described as follows: Antiproliferative activity against human MDA-MB-231 cells assessed as inhibition of cell proliferation measured after 72 hrs by CCK8 assay. In kind it is functional, cell-based. Particulars: MDA-MB-231, 72 h.
Test [10] relates to HCT-116. The test is described as follows: Induction of apoptosis in human HCT-116 cells assessed as viable cells at 100 nM incubated for 48 hrs by Annexin V-FITC/PI staining based flow cytometry analysis (reference value: 94.31 %). In kind it is functional. Particulars: read-out: Activity.
The test system of test [11] is A549. The test is described as follows: Antiproliferative activity against human A549 cells assessed as inhibition of cell proliferation measured after 72 hrs by CCK8 assay. In kind it is functional, cell-based. Particulars: A549, 72 h.
Test [12] concerns HCT-116. The test is described as follows: Induction of cell cycle arrest in human HCT-116 cells assessed as accumulation of cells at G2/M phase at 10 nM incubated for 24 hrs by RNase A/propidium iodide staining based flow cytometric analysis (reference value: 4.05 %). In kind it is functional.
Test [13] addresses T1, Kinesin-like protein KIF11 (Homo sapiens, UniProt P52732).
T1 sequence (P52732 whole entry): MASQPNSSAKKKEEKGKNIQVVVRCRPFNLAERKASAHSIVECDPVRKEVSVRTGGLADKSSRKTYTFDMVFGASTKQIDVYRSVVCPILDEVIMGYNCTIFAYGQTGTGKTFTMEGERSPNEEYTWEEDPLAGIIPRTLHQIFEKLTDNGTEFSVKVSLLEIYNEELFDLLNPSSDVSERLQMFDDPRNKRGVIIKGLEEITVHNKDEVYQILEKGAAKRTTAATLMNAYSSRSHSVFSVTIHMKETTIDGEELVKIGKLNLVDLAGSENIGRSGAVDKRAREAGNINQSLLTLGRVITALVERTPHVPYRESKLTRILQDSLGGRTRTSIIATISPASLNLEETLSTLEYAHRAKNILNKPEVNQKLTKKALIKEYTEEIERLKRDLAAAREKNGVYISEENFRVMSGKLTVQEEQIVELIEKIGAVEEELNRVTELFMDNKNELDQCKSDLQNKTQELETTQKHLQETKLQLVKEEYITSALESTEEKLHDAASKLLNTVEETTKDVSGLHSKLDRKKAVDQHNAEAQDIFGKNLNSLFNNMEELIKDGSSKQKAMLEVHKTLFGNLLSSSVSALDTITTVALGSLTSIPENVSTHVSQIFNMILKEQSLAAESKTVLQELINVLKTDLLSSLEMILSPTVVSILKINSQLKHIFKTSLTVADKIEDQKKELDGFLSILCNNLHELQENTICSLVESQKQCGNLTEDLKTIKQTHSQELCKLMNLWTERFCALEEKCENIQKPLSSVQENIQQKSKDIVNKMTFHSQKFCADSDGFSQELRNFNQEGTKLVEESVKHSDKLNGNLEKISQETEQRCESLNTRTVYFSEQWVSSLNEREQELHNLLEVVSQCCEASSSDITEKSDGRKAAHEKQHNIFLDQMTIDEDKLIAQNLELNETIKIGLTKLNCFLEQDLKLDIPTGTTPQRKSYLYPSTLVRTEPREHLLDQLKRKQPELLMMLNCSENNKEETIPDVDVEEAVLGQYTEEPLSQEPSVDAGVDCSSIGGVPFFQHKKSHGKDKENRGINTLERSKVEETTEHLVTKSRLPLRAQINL
The test is described as follows: Inhibition of KSP (unknown origin) ATPase activity preincubated for 30 mins followed by ATP addition and measured after 15 mins by Kinase-Glo Plus reagent based luminescence analysis.

A word on the IC50: it is the midpoint of a concentration-inhibition curve. In the case of `COc1ccc(C2(SC[C@H](N)C(=O)O)c3ccccc3C=Cc3ccccc32)cc1`, the Activity in test [1] was found to be 66.9%; in [2], 0%; in test [3], 31.49%; in test [5], 12.07%; in test [6], 14.06%; in [8], 23.79%. For the same compound, in test [12], the Activity is 21.03%. Also, the IC50 is 17.5 nM in test [4]; 8.5 nM in test [7]; 12.1 nM in test [9]; 262 nM in test [11]; 27.6 nM in [13]. Moreover, the viability at 0.1 µM in [10] was 30.7%.
